Patent publication US11926619B2, “Certain pladienolide compounds and methods of use” (EISAI R&D MANAGEMENT CO., LTD., priority 2018, dated 2024)
Like-named read-outs stand apart in the source and are kept apart here.

What was measured:
Format in all cases: cell-based
[1] = test system: Panc 05.04 cells (pancreatic cancer cells; Q699H and K700E mutations in SF3B1); test: Cell viability assay (CellTiter-Glo, 72 hr), Panc 05.04 cells; conditions: Panc 05.04 cells (mutant SF3B1); for Emax: maximum achievable response in tested dose range, negative value = cellular lethality, read-out: Panc 05.04 (mt SF3B1 cells) Emax (%); for GI50: read-out: Panc 05.04 (mt SF3B1 cells), GI50
Description: (§1) Cells (WiDr and Panc05.04 obtained from ATCC) were seeded in 96-well plates, with 2000 cells/100 μL/well, and incubated overnight. Spent media was removed, and fresh media containing 9 different concentrations of compound (100 μL/well) were added, with DMSO concentration from compound stock solution adjusted to be 0.1%. Each compound treatment was done in duplicate or triplicate at each concentration.
(§2) Another plate with cells seeded was dedicated as a time zero (Tz) plate, to which was added 0.1% DMSO in media (100 μL/well) followed by CellTiter-Glo® reagent (Promega Corporation, Madison, Wisconsin) (50 μL/well) for ATP measurement as a surrogate of cell viability. Average value from measurement of multiple wells of this plate is used as Tz. Compound-treated plates were incubated for 72 hr at 37° C. Then, CellTiter-Glo® reagent (50 μL/well) was added and ATP was measured. Average value from measurement of the duplicate or triplicate compound-treated wells is used as Ti, and seeded plates with medium having 0.1% DMSO without compound is used as control growth (C).
(§3) Percentage growth inhibition/Percentage viability was calculated as:
(§4) [(Ti−Tz)/(C−Tz)]×100 for concentrations for which Ti>/=Tz
(§5) [(Ti−Tz)/Tz]×100 for concentrations for which Ti<Tz.
(§6) *time zero (Tz), control growth (C), and test growth in the presence of compound (Ti) Percentage growth inhibition/Percentage viability are plotted versus compound concentration to determine Emax.
(§7) Emax refers to the maximum achievable response to a compound in a tested dose range, with a negative value indicating cellular lethality. A larger negative Emax value indicates greater cellular lethality for a particular compound.

[2] = test system: WiDr-R cells (colon cancer cells; chemically-induced SF3B1 R1074H mutant); test: Cell viability assay (CellTiter-Glo, 72 hr), resistant WiDr-R cells (counter-screen)
Description: as §1, §2, §3, §4, §5, §6, §7
The counter-screening of compounds in this viability assay with a “resistant” WiDr-R cell line may indicate whether these compounds have off-target effect(s).

[3] = test system: WiDr cells (colon cancer cells; wildtype SF3B1); test: Cell viability assay (CellTiter-Glo, 72 hr), WiDr cells; conditions: Homo sapiens
Description: as §1, §2, §3, §4, §5, §6
Emax refers to the maximum achievable response to a compound in a tested dose range, with a negative value indicating cellular lethality. A larger negative Emax value indicates greater cellular lethality for a particular compound. […]

[4] = WiDr-R cells (SF3B1 R1074H mutation, resistant), read-out: WiDr-R GI50
[5] = WiDr cells (wildtype SF3B1), read-out: WiDr GI50

SMILES	Emax [1] [%]	GI50 [1] [nM]	GI50 [2, 4] [nM]	GI50 [3, 5] [nM]	GI50 ([2]; read-out: WiDr-R GI50 (nM)) [nM]	GI50 ([3]; WiDr, read-out: WiDr GI50 (nM)) [nM]
C/C(=C\C=C\[C@@H](C)COC(=O)N1CCC[C@H]1CF)[C@H]1OC(=O)C[C@H](O)CC[C@H](C)[C@@H](OC(=O)N2CCN(C)CC2)/C=C/[C@@H]1C	-79.1	0.339	> 1000	2.2	–	–
CC(=O)O[C@H]1/C=C/[C@H](C)[C@@H](/C(C)=C/C=C/[C@@H](C)COC(=O)N2CCSC2)OC(=O)C[C@H](O)CC[C@@]1(C)O	–	68	> 1000	62.9	–	–
COC(=O)OC[C@H](C)/C=C/C=C(\C)[C@H]1OC(=O)C[C@H](O)CC[C@@](C)(O)[C@@H](OC(=O)N2CCN(C)CC2)/C=C/[C@@H]1C	-95.9	5.11	> 1000	14.7	–	–
C/C(=C\C=C\[C@@H](C)COC(=O)N1CC[C@@H](Oc2nnnn2-c2ccccc2)C1)[C@H]1OC(=O)CCCC[C@@](C)(O)[C@@H](OC(=O)N2CCN(C)CC2)/C=C/[C@@H]1C	-94.9	37.3	> 1000	31.6	–	–
CC(=O)O[C@H]1/C=C/[C@H](C)[C@@H](/C(C)=C/C=C/Cc2cccnc2)OC(=O)C[C@H](O)CC[C@@]1(C)O	84.5	> 6400	> 10000	538	–	–
C/C(=C\C=C\[C@@H](C)CN(C)C(=O)N1CCCC1)[C@H]1OC(=O)C[C@H](O)CC[C@@](C)(O)[C@@H](OC(=O)N2CCN(C3CCCCCC3)CC2)/C=C/[C@@H]1C	-94.5	23.5	> 1000	145	–	–
C/C(=C\C=C\[C@@H](C)COC(=O)N1CCC(=O)C1)[C@H]1OC(=O)C[C@H](O)CC[C@@](C)(O)[C@@H](OC(=O)N2CCN(C3CCCCCC3)CC2)/C=C/[C@@H]1C	-93.6	2.85	449	4.77	–	–
C/C(=C\C=C\C(C)c1ccnc(N2CCCC2)n1)[C@H]1OC(=O)CCCCC[C@@H](OC(=O)N2CCN(C3CCCCCC3)CC2)/C=C/[C@@H]1C (some centres unmarked)	52	> 10000	4080	810	–	–
CC(=O)O[C@H]1/C=C/[C@H](C)[C@@H](/C(C)=C/C=C/C(C)c2cccc([C@H](C)CO)n2)OC(=O)C[C@H](O)CC[C@@]1(C)O (some centres unmarked)	-28.2	408	> 10000	343	–	–
COCCN(C)C(=O)OC[C@H](C)/C=C/C=C(\C)[C@H]1OC(=O)C[C@H](O)CC[C@@](C)(O)[C@@H](OC(C)=O)/C=C/[C@@H]1C	-96.8	64.3	> 1000	247	–	–
C/C(=C\C=C\[C@@H](C)COC(=O)N1[C@H](C)CC[C@H]1C)[C@H]1OC(=O)C[C@H](O)CC[C@@](C)(O)[C@@H](OC(=O)N2CCN(C3CCCCCC3)CC2)/C=C/[C@@H]1C	-68.9	4.52	14.8	2.39	–	–
COc1cccc(C(C)/C=C/C=C(\C)[C@H]2OC(=O)C[C@H](O)CC[C@@](C)(O)[C@@H](OC(C)=O)/C=C/[C@@H]2C)n1 (some centres unmarked)	-12.7	554	> 10000	282	–	–
C/C(=C\C=C\[C@@H](C)COC(=O)N1CCC[C@H]1CF)[C@H]1OC(=O)C[C@H](O)CC[C@H](C)[C@@H](OC(=O)N2CCN(C3CCCCCC3)CC2)/C=C/[C@@H]1C	-77.7	6.76	> 1000	5.05	–	–
C/C(=C\C=C\[C@@H](C)COC(=O)N1CC[C@@H](O)C1)[C@H]1OC(=O)CCCC[C@@](C)(O)[C@@H](OC(=O)N2CCN(C)CC2)/C=C/[C@@H]1C	-94.6	4.44	> 1000	11.2	–	–
C/C(=C\C=C\[C@@H](C)COC(=O)N1CC[C@H](F)C1)[C@H]1OC(=O)C[C@H](O)CC[C@@](C)(O)[C@@H](OC(=O)N2CCN(C)CC2)/C=C/[C@@H]1C	-90.2	4.86	> 1000	2.84	–	–
C/C(=C\C=C\[C@@H](C)COC(=O)N1CCC[C@H]1C)[C@H]1OC(=O)CCCCC[C@@H](OC(=O)N2CCN(C)CC2)/C=C/[C@@H]1C	-65.3	7.73	681	3.44	–	–
C/C(=C\C=C\[C@@H](C)COC(=O)N1CCC[C@H]1CO)[C@H]1OC(=O)C[C@H](O)CC[C@H](C)[C@@H](OC(=O)N2CCN(C)CC2)/C=C/[C@@H]1C	-79	4.36	> 1000	2.66	–	–

SMILES	Emax [1] [%]	GI50 [1] [nM]	GI50 [2, 4] [nM]	GI50 [3, 5] [nM]	GI50 ([2]; read-out: WiDr-R GI50 (nM)) [nM]	GI50 ([3]; WiDr, read-out: WiDr GI50 (nM)) [nM]
C/C(=C\C=C\CCOC(=O)N1CCCC1)[C@H]1OC(=O)C[C@H](O)CC[C@@](C)(O)[C@@H](OC(=O)N2CCN(C)CC2)/C=C/[C@@H]1C	–	58.4	> 5500	63.6	–	–
CCCN(C)C(=O)OC[C@H](C)/C=C/C=C(\C)[C@H]1OC(=O)C[C@H](O)CC[C@@](C)(O)[C@@H](OC(=O)N2CCN(C3CCCCCC3)CC2)/C=C/[C@@H]1C	-92.4	279	–	–	> 1000	43.4
CC(=O)O[C@H]1/C=C/[C@H](C)[C@@H](/C(C)=C/C=C/C(C)(O)c2ccccc2)OC(=O)C[C@H](O)CC[C@@]1(C)O (some centres unmarked)	13.3	1500	> 10000	657	–	–
C/C(=C\C=C\C(C)c1ccnc(N(C)C)n1)[C@H]1OC(=O)C[C@H](O)CC[C@@](C)(O)[C@@H](OC(=O)N2CCN(C)CC2)/C=C/[C@@H]1C (some centres unmarked)	6.97	1290	> 1000	252	–	–
C/C(=C\C=C\[C@@H](C)c1ccccn1)[C@H]1OC(=O)CCCC[C@@](C)(O)[C@@H](OC(=O)N2CCN(C)CC2)/C=C/[C@@H]1C	-75.7	33.9	> 1000	31.6	–	–
CCC(C)N(C)C(=O)OC[C@H](C)/C=C/C=C(\C)[C@H]1OC(=O)C[C@H](O)CC[C@@](C)(O)[C@@H](OC(C)=O)/C=C/[C@@H]1C (some centres unmarked)	–	587	> 10000	308	–	–
C/C(=C\C=C\[C@@H](C)CO)[C@H]1OC(=O)C[C@H](O)CC[C@@](C)(O)[C@@H](OC(=O)N2CCN(C)CC2)/C=C/[C@@H]1C	35.1	1390	> 10000	1150	–	–
C/C(=C\C=C\[C@@H](C)COC(=O)N1CCC[C@H]1C(N)=O)[C@H]1OC(=O)C[C@H](O)CC[C@@](C)(O)[C@@H](OC(=O)N2CCN(C3CCCCCC3)CC2)/C=C/[C@@H]1C	-92.9	40.2	> 1000	32.8	–	–
CC(=O)O[C@H]1/C=C/[C@H](C)[C@@H](/C(C)=C/C=C/Cc2ccncc2)OC(=O)C[C@H](O)CC[C@@]1(C)O	76.5	> 6400	> 10000	610	–	–
C/C(=C\C=C\[C@@H](C)COC(=O)N1CC[C@H](C)C1)[C@H]1OC(=O)C[C@H](O)CC[C@@](C)(O)[C@@H](OC(=O)N2CCN(C3CCCCCC3)CC2)/C=C/[C@@H]1C	-93.6	2.59	> 1000	6.2	–	–
C/C(=C\C=C\[C@@H](C)COC(=O)N1CC[C@@H](C)C1)[C@H]1OC(=O)C[C@H](O)CC[C@@](C)(O)[C@@H](OC(=O)N2CCN(C3CCCCCC3)CC2)/C=C/[C@@H]1C	-86.6	1.2	> 1000	3.93	–	–
C/C(=C\C=C\[C@@H](C)COC(=O)N1Cc2ccccc2C1)[C@H]1OC(=O)C[C@H](O)CC[C@@](C)(O)[C@@H](OC(=O)N2CCN(C)CC2)/C=C/[C@@H]1C	-56	35.4	> 1000	33.8	–	–
C/C(=C\C=C\C(C)(C)COC(=O)N1CCCC1)[C@H]1OC(=O)C[C@H](OC(=O)N2CCCC2)CC[C@@](C)(O)[C@@H](OC(=O)N2CCN(C3CCCCCC3)CC2)/C=C/[C@@H]1C	-92.4	86.3	1880	41.4	–	–
CC(=O)O[C@H]1/C=C/[C@H](C)[C@@H](/C(C)=C/C=C/C(C)(O)CCc2ccccc2)OC(=O)C[C@H](O)CC[C@@]1(C)O (some centres unmarked)	-41.5	354	> 10000	194	–	–
CCCCN(C)C(=O)OC[C@H](C)/C=C/C=C(\C)[C@H]1OC(=O)C[C@H](O)CC[C@@](C)(O)[C@@H](OC(C)=O)/C=C/[C@@H]1C	–	198	> 10000	86.5	–	–
C/C(=C\C=C\[C@@H](C)c1ccccn1)[C@H]1OC(=O)C[C@H](O)CC[C@@](C)(O)[C@@H](OC(=O)N(C)C2CCN(C)CC2)/C=C/[C@@H]1C	-60.2	25.1	> 1000	16.2	–	–
